# Literature values as cited in patent US20100130528A1, “ADAMANTANE MODULATORS OF NMDA RECEPTOR AND/OR 5HT3 RECEPTOR” (AUSPEX PHARMACEUTICALS, INC., priority 2008, published 2010).
# Key:
# [1] = test system: cytochrome P450
# [2] = in man
# [3] = in vivo
structure (smiles),measurement,setting,value
"CC12CC3CC(C)(C1)CC(N)(C3)C2 [memantine, 1-amino-3,5-dimethyl-adamantane]",cytochrome P450 catalysed metabolism,[1],No cytochrome P450 catalysed metabolism has been detected
same,circulating memantine-related material present as the parent compound,[2],about 80%
same,adverse effects,[3],"fatigue, pain, hypertension, dizziness, headache, constipation, vomiting, confusion, somnolence, hallucination, cough, and dyspnea"
